Where a chain is given by its changes, count along the chain named.
Experiments:
CepR [1] = target: T1, CepR (Burkholderia multivorans, UniProt Q93PF7); test: CepR antagonism in B. multivorans cepI::lacZ reporter (Bm-reporter), competition against C8-AHL; assay type: cell-based; conditions: for Maximal Inhibition (%): Bm-reporter, against 5 nM C8-AHL; for IC50 / Inh% (100-Act%): Table S5, Bm-reporter; for IC50: read-out: IC50; for Inh% (100-Act%): screening conc. 100 μM
T1 sequence (Q93PF7 1-239): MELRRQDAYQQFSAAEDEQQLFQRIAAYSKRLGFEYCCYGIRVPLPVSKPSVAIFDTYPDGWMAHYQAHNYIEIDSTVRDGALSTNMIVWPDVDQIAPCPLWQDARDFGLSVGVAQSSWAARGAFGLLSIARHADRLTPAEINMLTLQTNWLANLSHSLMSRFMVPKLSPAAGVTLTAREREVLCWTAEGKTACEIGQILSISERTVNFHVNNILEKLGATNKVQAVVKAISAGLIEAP
Text: (§1) We next sought to assess if the CepR modulators identified in the Ec-reporter maintained their activities in a member of the Bcc. For these studies, we generated a B. multivorans cepI::lacZ reporter organism (Bm-reporter) using standard allelic exchange methods (see Methods). Along with B. cenocepacia, B. multivorans is one of the most commonly isolated Bcc members[6],[44]. We note that small molecules must contend with a different cellular environment in the native organism relative to E. coli[48]; however, as both CepR and the cepI promoter are highly conserved among Bcc species (Fig. S3), we reasoned that the majority of compounds identified in the Ec-reporter (containing B. cenocepacia versions of the cepI promoter and the cepR gene) would maintain their relative activity profiles in CepR in B. multivorans. […] Similar to the Ec-reporter, CepR binding to the cepI promoter then induces β-galactosidase production, allowing for the quantitation of CepR activity. Using the Bm-reporter organism, we observed robust activity for CepR in response to C8-AHL (EC50 = 0.7 nM, Table 3).
(§2) The B. multivorans cepI::lacZ strain was used to obtain dose-response data for CepR in response to synthetic AHLs. Overnight cultures of B. multivorans cepI::lacZ were grown in LB medium at 37 °C with shaking (225 rpm). Aliquots (200 μL) of a 1:10 dilution of this overnight culture were plated into 96-well plates containing varying concentrations of compound, and then grown for 4 h at 37 °C with shaking (225 rpm). β-galactosidase production was measured as described above for E. coli, with the following changes: permeabilized cells were incubated at 25 °C with substrate CPRG for ~10 min until positive control wells developed a deep red color. For agonism assays, synthetic compound was screened alongside and compared to the native ligand, C8-AHL (100 μM). For antagonism assays, the concentration of native ligand utilized was 5 nM (approximately equal to twice its EC50 value).

CepR [2] = target: T2, CepR (Burkholderia cenocepacia, UniProt B4EMD0); test: CepR antagonism in E. coli β-galactosidase reporter (Ec-reporter), competition against C8-AHL; assay type: cell-based, B. cenocepacia; conditions: against 10 nM C8-AHL; for IC50 / Maximal Inhibition (%): Ec-reporter; for Inh% (100-Act%): Table S3, Ec-reporter, screening conc. 100 μM
T2 sequence (B4EMD0 1-239): T1 sequence (Q93PF7 1-239) with R5W, S51A, H69Q, S84N, Q95R, A97D
In short: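 CepR antagonism was measured in E. coli JLD271 (∆sdiA) carrying pJN105-cepR, which expresses B. cenocepacia CepR from an arabinose-inducible pBAD promoter, and pSC11-cepI, which fuses lacZ to the cepI promoter. Induced cells were grown 4 h with compound and 10 nM C8-AHL. β-Galactosidase activity was then read by CPRG cleavage at 37 °C after Z Buffer permeabilization.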

CepR [3] = target: T2, CepR; test: CepR agonism in E. coli β-galactosidase reporter (Ec-reporter) JLD271 [pJN105-cepR + pSC11-cepI]; assay type: cell-based, B. cenocepacia; conditions: for Act%: Table S2, Ec-reporter, screening conc. 100 μM
In short: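 E. coli JLD271 (ΔsdiA) carrying arabinose-inducible CepR (27 mM L-arabinose) and cepI-lacZ fusion, grown 4 h with compound; β-galactosidase measured by CPRG cleavage at 37 °C (~30 min), normalized to OD600. Agonism compared with C8-AHL at 100 μM; screen at 100 μM or solubility limit, then dose-response; ≥3 trials.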

CepR [4] = target: T1, CepR; test: CepR agonism in B. multivorans cepI::lacZ reporter (Bm-reporter); assay type: cell-based; conditions: Table S4, Bm-reporter; screening conc. 100 μM
Text: as §1, §2

CepR [5] = tested on: CepR; parameters: method as in PMID 15978077; conditions: at concentrations greater than 1 μM; cited from earlier work

Row | SMILES | Maximal Inhibition (%) (CepR [1]) | IC50 (CepR [2]) [µM] | Maximal Inhibition (%) (CepR [2]) | Act% (CepR [3]) [%] | Act% (CepR [4]) [%] | Effect on CepR (CepR [5]) | IC50 (CepR [1]) [µM] | Inh% (100-Act%) (CepR [1]) [%] | Inh% (100-Act%) (CepR [2]) [%] | EC50 (CepR [3]; Ec-reporter, agonism dose-response) [µM] | Maximal Activation (%) (CepR [3]; Ec-reporter, activity for 100 μM C8-AHL set to 100%, error ±10%)
1 | O=C(Cc1ccc(F)c(C(F)(F)F)c1)N[C@H]1CCOC1=O [Compound E10] | 21 | 0.43 | 79 | 13 | 11 |  |  |  |  |  | 
2 | C#CCCCC(=O)NC1CCOC1=O (stereo not shown) [5-hexynoyl-HL] |  |  |  |  |  | slight inhibitory effects |  |  |  |  | 
3 | N#Cc1ccc(CC(=O)N[C@H]2CCOC2=O)cc1 [Compound E4] |  |  |  | 0.2 |  |  | ≥ 4.5 | 97 | 29 |  | 
4 | CCCCCC(=O)N[C@H]1CCOC1=O [Compound C6-AHL, hexanoyl L-homoserine lactone, reference compound] | 20 | 7.5 | 83 | 87 |  | slight inhibitory effects |  |  |  | ≥ 20 | 87
5 | O=C(Nc1ccccc1NC(=O)c1cccc(Cl)c1)c1cccc(Cl)c1 [TP-5, reference compound] |  |  |  | 0.4 |  |  |  | 15 | 24 |  | 
6 | O=C(Cc1ccc(Cl)c(Cl)c1)N[C@H]1CCOC1=O [Compound E11] |  |  |  | 1.9 |  |  |  | 94 | 59 |  | 
7 | O=C(Cc1cccc(I)c1)N[C@H]1CCOC1=O [Compound C11] |  |  |  | 43 | 2.3 |  | 1.6 | 80 | 27 |  | 

Reference: article PMC6748986, “Potent modulation of the CepR quorum sensing receptor and virulence in a Burkholderia cepacia complex member using non-native lactone ligands” (Scientific Reports, 2019)
